“And” between values parts separate entries of the source, which are not always exact repeats. Equal entries are not always repeated.
How the values were obtained:
α-Glucosidase = target: T1, α-Glucosidase (Saccharomyces cerevisiae, UniProt P53341); assay: biochemical; conditions: 0–100 µM, pre-incubation 10 min 37°C, pH 6.9; NS = not significant
T1 construct: purchased SRL, Mumbai (India)
Description: (§1) Porcine pancreatic α-Amylase and Yeast α-Glucosidase were purchased from SRL, Mumbai (India). Glucose oxidase (GOD POD) kit was purchased from Piramal HealthCare Ltd, Mumbai (India). All other chemicals used were of analytical grade and purchased from Sigma Aldrich, St. Louis (USA) and SRL, Mumbai (India). All IR spectra were obtained in KBr disc on a Shimadzu FT-IR 157 Spectrometer. ^1H and ^13C NMR spectra were recorded on a Bruker WH-200 (400 MZ) spectrometer in CDCl3 or DMSO-d6 as solvent, using TMS as an internal standard and chemical shifts are expressed as ppm. Mass spectra were determined on a Shimadzu LC-MS. The elemental analyses were carried out using an Elemental Vario Cube CHNS rapid Analyzer. The progress of the reaction was monitored by TLC pre-coated silica gel G plates.
The α-glucosidase inhibitory activities of synthesized compounds were evaluated using the method developed by Tsujii et al.. Briefly, α-glucosidase was dissolved in phosphate buffer (50 mM, pH 6.9) and pre-treated with various concentrations of 1,3-benzoxazine derivatives (0–100 µM) independently for 10 min at 37°C. The reaction was initiated by the addition of 50 µL of 5 mM p-nitrophenyl- α -D-glucopyranoside solution in phosphate buffer (50 mM, pH 6.9). The enzyme reaction was carried out at 37°C for 30 min. The reaction was terminated by the addition of Na2CO3 (1 M). The enzymatic activity of α-glucosidase was quantified by measuring the absorption at 405 nm using a Varioskan multimode plate reader (Thermo Scientifics, USA). The inhibitory effect of compounds was defined as inhibitory activity (%) = (Abs Control – Abs Compound treated)/Abs Control ×100. Concentration-response assays were used to determine the potency (IC50) of 1,3-benzoxazine derivatives based on the logistic analysis of the concentration-response curve using Microsoft Excel.

[1] = target: T2, Porcine pancreatic α-amylase (Sus scrofa, UniProt P00690); assay: α-amylase inhibition assay (starch, DNS reagent); assay type: biochemical; conditions: 0–100 µM, pre-incubation 10 min 37°C, pH 6.9; NS = not significant
T2 construct: purchased SRL, Mumbai (India)
T2 sequence (P00690 16-511): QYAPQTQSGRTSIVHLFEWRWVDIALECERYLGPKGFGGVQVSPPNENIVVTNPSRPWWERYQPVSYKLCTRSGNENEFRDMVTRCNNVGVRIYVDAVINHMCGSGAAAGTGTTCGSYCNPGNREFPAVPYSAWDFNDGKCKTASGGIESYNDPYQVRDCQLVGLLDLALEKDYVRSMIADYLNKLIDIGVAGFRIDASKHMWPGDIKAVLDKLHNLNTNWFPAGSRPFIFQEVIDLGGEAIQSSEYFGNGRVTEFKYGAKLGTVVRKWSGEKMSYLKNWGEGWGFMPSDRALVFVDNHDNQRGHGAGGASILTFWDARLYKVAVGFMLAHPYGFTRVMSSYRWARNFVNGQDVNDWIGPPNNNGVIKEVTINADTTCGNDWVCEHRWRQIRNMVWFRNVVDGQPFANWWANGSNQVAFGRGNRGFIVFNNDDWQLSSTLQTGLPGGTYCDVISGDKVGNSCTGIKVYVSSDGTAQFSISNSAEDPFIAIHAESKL
Description: as §1, with “All IR spectra were obtained in KBr disc on a Shimadzu FT-IR 157 Spectrometer. ^1H and ^13C NMR spectra were recorded on a Bruker WH-200 (400 MZ) spectrometer in CDCl3 or DMSO-d6 as solvent, using TMS as an internal standard and chemical shifts are expressed as ppm.” left out
The α-amylase inhibition assay was performed according to a previous report. Porcine pancreatic α-amylase (3 units/mL) was dissolved in 0.1 M phosphate buffered saline, pH 6.9. […] The reaction was initiated by adding substrate solution (0.1% starch) to the incubation medium. After 10 min incubation, the reaction was stopped by adding 250 µL dinitrosalicylic (DNS) reagent (1% 3, 5-dinitrosalicylic acid, 0.2% phenol, 0.05% Na2SO3 and 1% NaOH in aqueous solution) to the reaction mixture. The reaction was terminated by keeping the reaction mixture in boiling water bath for 10 min. Thereafter, 250 µL of 40% potassium sodium tartarate solution was added to the mixtures to stabilize the colour. After cooling to room temperature in a cold water bath, the absorbance was recorded at 540 nm using a Varioskan multimode plate reader (Thermo Scientifics, USA). Acrabose was used as positive control. The percentage of inhibition was calculated using Abs Contol – Abs Sample ×100/Abs Control. Where Abs Control was the absorbance without sample, Abs sample was the absorbance of enzyme with compound.

[2] = system: overnight fasted Wistar rats; assay: Oral maltose tolerance test; assay type: in vivo, rat; conditions: acarbose 3 mg/kg oral, maltose 3 g/kg, compared to maltose control
Description: (§2) Adult Wistar rats weighing 150–180 g were collected from the University Central Animal Facility and housed under a controlled environment. All animal experiments were approved by the Institutional Animal Ethical Committee (Order No : MGZ/2620/2011-12 Dated 31-01-2012; UOM/IAEC/18/2011), Department of Studies in Zoology, University of Mysore, Mysore and were in accordance with the guidelines of the Committee for the Purpose of Control and Supervision of Experiments on Animals (CPCSEA).
(§3) The experimental animals were randomly divided into 11 groups each consisting of 5 rats. […] Blood was collected from the tail vein to the tubes containing anticoagulant (2.5% trisodium citrate and 1.37% citric acid in the ratio 1∶5; anti-coagulant: blood) at time point 0 (just before sucrose/maltose administration), and subsequently at 30, 60, 90, 120 and 180 min after substrate (sucrose/maltose) administration. Plasma was separated by centrifuging the samples at 2000 rpm for 10 min and stored at −20°C until analysis. Plasma glucose concentration was determined by using the Glucose oxidase (GOD POD) kit according to the manufacturer’s protocol.

[3] = system: overnight fasted Wistar rats; assay: Oral sucrose tolerance test; assay type: in vivo, rat; conditions: acarbose 3 mg/kg oral, sucrose 3 g/kg, compared to sucrose control
Description: as §2, §3

rat intestinal maltase = assay: Intestinal α-glucosidase inhibitory assay, maltose as substrate; assay type: biochemical; conditions: rat intestinal acetone powder, maltose 37 mM, 30 min
Description: Intestinal α-glucosidase activity was determined by measuring the amount of glucose hydrolyzed from maltose or sucrose. Briefly, rat intestinal acetone powder was homogenized in 0.9% saline and the suspension was centrifuged at 10,000 g for 30 min at 4°C and the supernatant obtained was used as enzyme source. […] After the respective incubation period, reaction was terminated by keeping the samples in boiling water bath for 10 min. The concentration of glucose released from the reaction mixtures was determined by using Glucose oxidase (GOD POD) kit according to the manufacturer’s protocol. Results were expressed as percentage inhibition of intestinal maltase/sucrase activity.

T1 sequence (P53341 whole entry): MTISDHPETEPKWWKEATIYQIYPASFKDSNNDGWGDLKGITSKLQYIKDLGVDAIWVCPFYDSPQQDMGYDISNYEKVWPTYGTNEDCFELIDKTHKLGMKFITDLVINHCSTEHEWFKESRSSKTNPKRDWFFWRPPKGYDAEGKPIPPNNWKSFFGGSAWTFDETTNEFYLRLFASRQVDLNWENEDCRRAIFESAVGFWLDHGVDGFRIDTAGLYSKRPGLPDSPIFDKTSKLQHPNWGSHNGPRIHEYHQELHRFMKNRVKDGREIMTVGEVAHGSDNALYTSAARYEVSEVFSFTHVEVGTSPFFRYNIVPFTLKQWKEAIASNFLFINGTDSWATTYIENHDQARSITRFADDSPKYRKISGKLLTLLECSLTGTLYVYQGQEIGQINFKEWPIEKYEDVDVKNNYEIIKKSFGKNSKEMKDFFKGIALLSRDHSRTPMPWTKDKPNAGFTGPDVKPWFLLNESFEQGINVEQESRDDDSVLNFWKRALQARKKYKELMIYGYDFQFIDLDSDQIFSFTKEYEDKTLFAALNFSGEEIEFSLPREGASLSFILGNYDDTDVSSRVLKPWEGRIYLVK

CCCCc1nc(Cl)c(C2Nc3ccccc3CO2)[nH]1 (centres unmarked) [compound 6, 2-(2-butyl-4-chloro-1H-imidazol-5-yl)-2,4-dihydro-1H-benzo[d][1,3]oxazine]
melting point: 80 to 82 °C
IC50 (α-Glucosidase): 16 µM and 16.7 µM
IC50 [1]: 18.5 ± 0.1 µM

Cc1[nH]c2ccccc2c1C1Nc2ccccc2CO1 (centres unmarked) [compound 3, 2-(2-methyl-1H-indol-3-yl)-2,4-dihydro-1H-benzo[d][1,3]oxazine]
IC50 (α-Glucosidase): 21.6 ± 0.1 µM
IC50 [1]: 10.6 ± 0.3 µM

Clc1ccc2c(c1)COC(c1c(-c3ccccc3)[nH]c3ccccc13)N2 (centres unmarked) [compound 9, 6-chloro-2-(2-phenyl-1H-indol-3-yl)-2,4-dihydro-1H-benzo[d][1,3]oxazine]
IC50 (α-Glucosidase): 27.8 ± 0.2 µM
IC50 [1]: 22.2 ± 0.1 µM

Cc1ccc2c(c1)COC(c1c(C)[nH]c3ccccc13)N2 (centres unmarked) [compound 11, 6-methyl-2-(2-methyl-1H-indol-3-yl)-2,4-dihydro-1H-benzo[d][1,3]oxazine]
IC50 (α-Glucosidase): 23.8 ± 0.1 µM
IC50 [1]: > 100 µM

O=c1c(C2Nc3ccc(Cl)cc3CO2)coc2ccccc12 (centres unmarked) [compound 10, 3-(6-chloro-2,4-dihydro-1H-benzo[d][1,3]oxazin-2-yl)-4H-chromen-4-one]
melting point: 141 to 143 °C
IC50 (α-Glucosidase): 31.9 ± 0.8 µM
IC50 [1]: > 100 µM

c1ccc2c(c1)COC(c1c[nH]c3ccccc13)N2 (centres unmarked) [compound 2, 2-(1H-indol-3-yl)-2,4-dihydro-1H-benzo[d][1,3]oxazine]
IC50 (α-Glucosidase): 32 ± 0.2 µM
IC50 [1]: 59.2 ± 1 µM

N#Cc1ccccc1-c1ccc(Cn2cc(C3Nc4ccccc4CO3)c3ccccc32)cc1 (centres unmarked) [compound 4]
IC50 (α-Glucosidase): > 100 µM
IC50 [1]: > 100 µM

C[C@H]1O[C@H](O[C@H]2[C@H](O)[C@@H](O)[C@@H](O[C@H]3[C@H](O)[C@@H](O)C(O)O[C@@H]3CO)O[C@@H]2CO)[C@H](O)[C@@H](O)[C@@H]1N[C@H]1C=C(CO)[C@@H](O)[C@H](O)[C@H]1O (some centres unmarked) [Acarbose, reference compound]
plasma glucose concentration [2]: significantly reduced the plasma glucose concentration at 30, 60, 90 min time intervals
plasma glucose concentration [3]: only significant at 60 and 90 min time points
IC50 (rat intestinal maltase): 3.5 µM

Cc1ccc2c(c1)COC(c1coc3ccccc3c1=O)N2 (centres unmarked) [compound 13, 3-(6-methyl-2,4-dihydro-1H-benzo[d][1,3]oxazin-2-yl)-4H-chromen-4-one]
melting point: 202 to 204 °C
IC50 (α-Glucosidase): > 100 µM
IC50 [1]: 51 ± 0.3 µM

Oc1ccc(C2Nc3ccccc3CO2)cc1 (centres unmarked) [compound 1, 4-(2,4-dihydro-1H-benzo[d][1,3]oxazin-2-yl)phenol]
melting point: 160 to 162 °C
IC50 (α-Glucosidase): 17.1 ± 0.1 µM
IC50 [1]: 20.4 ± 0.2 µM

Clc1ccc2c(c1)NC(c1c[nH]c3ccccc13)OC2 (centres unmarked) [compound 8, 7-chloro-2-(1H-indol-3-yl)-2,4-dihydro-1H-benzo[d][1,3]oxazine]
IC50 (α-Glucosidase): 27.7 ± 1 µM
IC50 [1]: 26.4 ± 0.5 µM

Cc1ccc2c(c1)COC(c1c(-c3ccccc3)[nH]c3ccccc13)N2 (centres unmarked) [compound 12, 6-methyl-2-(2-phenyl-1H-indol-3-yl)-2,4-dihydro-1H-benzo[d][1,3]oxazine]
IC50 (α-Glucosidase): 20.5 ± 0.5 µM
IC50 [1]: 17.6 ± 0.3 µM

O=c1c(C2Nc3ccccc3CO2)coc2ccccc12 (centres unmarked) [compound 5, 3-(2,4-dihydro-1H-benzo[d][1,3]oxazin-2-yl)-4H-chromen-4-one]
melting point: 142 to 144 °C
IC50 (α-Glucosidase): > 100 µM
IC50 [1]: 23.3 ± 0.5 µM
